Test systems include P388/ADR leukemia; RXF-631 renal; LXFL 529 NSCLC; BT-549 breast; DU-145 prostate; HS 578T breast; MDA-MB-231 breast; MDA-MB-435; MDA-N; PC-3 prostate; T-47D breast.
Holding throughout (assay): NCI tumour cell line growth inhibition, 48 h

Molecules are shown by their SMILES.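 Growth conditions: 96-well plates. Treatment: test compound, 48 hours, 5 concentrations. Analysis: linear interpolation between bracketing concentrations; unreached endpoints set to highest concentration. TGI denotes the concentration required for complete inhibition of growth.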

Turning to `CCNC(=O)C(C)C1CCC2(C)C=CC(=O)C(C)=C2C1O` (stereo not drawn), the TGI with P388/ADR leukemia was above 100 µM.

Take `CCOC(=O)Cc1cc(OC)c(OC)cc1/C(Cl)=C(\CO)c1ccc(OC)c(OC)c1`: the TGI with RXF-631 renal was above 100 µM.

For `O=C1C(Cl)N(c2c(Cl)cccc2Cl)C1c1c[nH]c2ccccc12` (stereo not drawn), in the assay on LXFL 529 NSCLC, the TGI was above 100 µM.

In the case of `C[N+](C)(CCCCCC[N+](C)(C)CCCN1C(=O)c2cccc3cccc(c23)C1=O)CCCN1C(=O)c2cccc3cccc(c23)C1=O`, the TGI with BT-549 breast, in the assay on DU-145 prostate, in the assay with HS 578T breast, with MDA-MB-231 breast, in the assay on MDA-MB-435 and in the assay with MDA-N was above 100 µM throughout. The TGI in the assay with PC-3 prostate and in the assay on T-47D breast was above 100 µM throughout.

Compound `N#C/C(=C\c1ccncc1)c1csc2ccccc12` gave a TGI with P388/ADR leukemia of 25.2 µM.

With `OCC1O[C@H](O[C@@H]2CCCN3CC(O)C(O)[C@@H]23)C(O)C(O)C1O` (stereo partly drawn), the TGI with LXFL 529 NSCLC and in the assay with RXF-631 renal was above 100 µM each time.

As to `O=C(Nc1ccc([N+](=O)[O-])cc1)Nn1cnnc1`, the TGI is 69.7 µM in the assay on BT-549 breast; above 100 µM with DU-145 prostate; 93.2 µM with HS 578T breast; above 100 µM in the assay with MDA-MB-435; above 100 µM in the assay on MDA-N; above 100 µM with PC-3 prostate. The same compound came in with a TGI in the assay on T-47D breast above 100 µM.

In the assay on P388/ADR leukemia, `S=c1sc2c(s1)SC(c1ccccc1)CS2` (stereo not drawn) registered a TGI above 100 µM.

`OCC#CCNCl`: the TGI with P388/ADR leukemia was above 100 µM.

Regarding `O=[N+]([O-])C(=C/c1ccccc1)/C(=C\c1ccccc1)[N+](=O)[O-]`, the TGI in the assay on BT-549 breast was 31.4 µM; in the assay with DU-145 prostate it was 29.7 µM; in the assay on HS 578T breast, 77.1 µM; in the assay with MDA-MB-231 breast, 26.2 µM; with MDA-MB-435, 30.3 µM; in the assay on MDA-N, 33.1 µM. For the same compound, the TGI in the assay on PC-3 prostate is 44.7 µM; in the assay on T-47D breast, 48.2 µM.

On to `O=NN1C(c2ccccc2)CNC(=O)CC1c1ccccc1` (stereo not drawn), for which, in the assay on P388/ADR leukemia, the TGI is 63.5 µM.

The compound `FC(F)(F)c1ccc2c(c1)N(CCCNCCN1CCOCC1)c1ccccc1S2` gave a TGI with LXFL 529 NSCLC of 25.6 µM.

`CC(C)(O)/C1=C/C=C/CCCCCCCCCC1`: the TGI was above 100 µM with BT-549 breast; above 100 µM in the assay with DU-145 prostate; 7.78 µM in the assay on HS 578T breast; above 100 µM with MDA-MB-231 breast; above 100 µM in the assay on MDA-MB-435; above 100 µM in the assay on MDA-N. The TGI with PC-3 prostate and with T-47D breast was above 100 µM throughout.

In the case of `COc1cc(OC2OC(CO)C(O)C(O)C2O)c2c(O)c3c(=O)cc(C)oc3cc2c1` (stereo not drawn), the TGI in the assay on BT-549 breast, in the assay with DU-145 prostate, in the assay on HS 578T breast, with MDA-MB-435, with PC-3 prostate and in the assay on T-47D breast was above 100 µM throughout.

The compound `O=S(O)CCCCCSSc1ccccc1` displayed a TGI in the assay on LXFL 529 NSCLC of 37.9 µM.

The record behind these values is PubChem BioAssay (NCI).
